Literature values, collected in patent publication EP1694724B1, “pH SENSITIVE POLYMER AND PROCESS FOR PREPARATION THEREOF” (Council of Scientific and Industrial Research, priority 2003, dated 2005).

Details: humans

CO/N=C(\C(=O)N[C@@H]1C(=O)N2C(C(=O)OC(C)OC(C)=O)=C(COC(N)=O)CS[C@H]12)c1ccco1 (stereo partly shown) [Cefuroxime axetil, cefuroxime axetil]
bioavailability: 32-50%
